Experimental findings from patent US20050004029A1, “Methods and compositions for treating vascular leak using hepatocyte growth factor” (priority 2001, published 2005) are described below.

The experiment has as its system GSK3β. Description: GSK3β Ser9 phosphorylation by western immunoblot. The conditions noted are these: after HGF treatment. It counts as cell-based, human. The protocol:
Endothelial cell monolayers grown to confluence in 12-well plates and challenged with HGF were lysed with 100 μl of 2×SDS sample buffer, and cell lysates were transferred into microcentrifuge tubes and boiled for 5 min. After a brief spin, proteins from 10 μl cell lysates were separated on 12% SDS-PAGE and transferred to nitrocellulose (Schleicher & Schuell, Keene, N.H.) (30V, 18 h). After blocking with PBST (PBS with 0.1% Tween 20) containing 5% non-fat milk for 1 hr, nitrocellulose blots were reacted with primary antibodies diluted in PBST containing 5% BSA for 1 hr, washed with PBST (3×10 min), incubated with peroxidase-conjugated secondary antibodies (goat anti-rabbit IgG, 1:10,000 dilution, Sigma; or goat anti-mouse IgG, 1:10,000 dilution, Bio-Rad Labs, Richmond, Calif.) diluted in PBST with 5% non-fat milk for 1 hr and again washed with PBST (3×10 min). Finally, immunoreactive proteins were detected using ECL. The relative intensities of the protein bands were quantified by scanning densitometry.
HGF has been reported to increase the phosphorylation status of GSK3β, a multi-functional enzyme involved in glycogen synthesis and protein synthesis regulation activity in mammary epithelial cells (Papkoff, J. and Aikawa, M. (1998) Biochem. Biophys. Res. Commun. 247:851-858). Of potential importance to barrier regulation, GSK3β phosphorylation results in enzymatic inactivation and increases the level of uncomplexed cellular β-catenin (Papkoff, J. (1997) J. Biol. Chem. 272(7):4536-4543). […] Concomitant with HGF-induced TER augmentation, increases in phosphorylation of GSK3β after HGF treatment was detected by increased immunofluorescence and prominent by Western blotting at 2 min, with peak intensity leveling off at 15-30 min, although remaining above basal levels for more than 2 hr. […]
For orientation: In western blotting, separated proteins are transferred to a membrane and probed.

Turning to “HGF: heparin-binding glycoprotein, multifunctional cytokine, ligand of c-Met; purchased from R&D Systems”, the “duration of GSK3β phosphorylation above basal levels” value was “more than 2 hr” and the “time of peak GSK3β phosphorylation” value fell in the range of 15 to 30 min. For the setting “Western blotting”, the “time at which GSK3β phosphorylation is prominent” value is on record as 2 min.
